Values joined by “and” are separate entries in the source; they are usually repeats but may differ in a detail not shown here. Identical values can stand only once.
Experiments:
recombinant OCTN1 [1] = target: T1, recombinant OCTN1 (Homo sapiens, UniProt Q9H015); assay: [14C]-TEA uptake in proteoliposomes reconstituted with recombinant OCTN1 over-expressed in E. coli; assay type: biochemical; conditions: for IC50: [14C]-TEA uptake 0.1 mM, 20 min
T1 construct: made in house; host or cells: E. coli
T1 sequence (Q9H015 1-551): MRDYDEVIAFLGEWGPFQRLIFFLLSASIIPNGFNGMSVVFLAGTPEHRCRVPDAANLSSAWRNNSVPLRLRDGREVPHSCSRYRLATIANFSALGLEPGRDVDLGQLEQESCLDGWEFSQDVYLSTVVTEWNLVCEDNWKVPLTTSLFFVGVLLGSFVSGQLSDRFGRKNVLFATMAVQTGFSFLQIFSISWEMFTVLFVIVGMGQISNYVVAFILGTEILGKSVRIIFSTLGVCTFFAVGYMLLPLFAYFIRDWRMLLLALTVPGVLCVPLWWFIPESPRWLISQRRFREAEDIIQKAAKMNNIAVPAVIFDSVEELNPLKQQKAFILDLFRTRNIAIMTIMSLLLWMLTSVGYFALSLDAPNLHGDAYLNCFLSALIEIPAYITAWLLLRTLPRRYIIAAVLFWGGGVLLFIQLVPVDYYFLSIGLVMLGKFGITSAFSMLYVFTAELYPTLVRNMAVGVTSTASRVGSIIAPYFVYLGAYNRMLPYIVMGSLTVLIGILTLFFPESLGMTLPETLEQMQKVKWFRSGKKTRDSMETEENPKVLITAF
Procedure: (§1) OCTN1 over-expressed in E. coli and purified as previously described was used for reconstitution in liposomes. The composition of the initial mixture used for reconstitution (except when differently indicated) was 200 µL of the purified protein (5 µg protein in 0.05% DDM), CHS at the indicated concentrations solubilized in 240 µL of 20 mM Tris/HCl (pH 7.5) and 5% Triton X-100 or buffer and Triton X-100 alone in the case of samples without CHS, 120 µL of 10% egg yolk phospholipids in the form of sonicated liposomes prepared as previously described, 16 mM ATP and (where indicated) in a final volume of 700 μL. The purified OCTN1 inserted in liposomal membrane by removing the detergent from mixed micelles containing detergent, protein, and phospholipids with Amberlite XAD-4 in a batch-wise procedure. Where indicated, proteoliposome internal volume was measured using a colorimetric phosphate method. In detail, 30 mM dipotassium phosphate (K2HPO4) was added to the reconstitution mixture. After elution from Sephadex G75 pre-equilibrated with 5 mM Tris/HCl (pH 7.5), 100 µL of sample were used for the colorimetric reaction. A solution containing 150 µL of 10% SDS was used to solubilize liposomal membranes. Then, 700 µL of a solution prepared with 10 mM hexammonium heptamolybdate 4-hydrate, 0.3 mM H2SO4 and 0.1 mM FeSO4 was added starting an incubation of 30 min in the dark. At the end, absorbance from each sample was measured at 578 nm. Internal volume in µL was derived from nmol of phosphate incorporated in liposomes.
(§2) Proteoliposomes reconstituted with the recombinant OCTN1 and added or not with CHS were incubated with MβCD as above described and then, MβCD was removed by chromatography on Sephadex G-75 column as described in Section 4.7.
(§3) Proteoliposomes (550 µL) were passed through a Sephadex G-75 column (0.7 cm diameter x 15 cm height) pre-equilibrated with 5 mM Tris/HCl (pH 7.5). The first 550 µL turbid eluate was collected and divided in aliquots (samples) of 100 µL each. Transport was started by adding 0.1 mM [^14C]-TEA or [^3H]-acetylcholine to the proteoliposome samples and stopped by adding 0.5 mM HgCl2 at the desired time interval. In control samples, the inhibitor was added at time zero according to the inhibitor stop method. Finally, each sample of proteoliposomes (100 µL) was passed through a Sephadex G-75 column (0.6 cm diameter × 8 cm height) in order to separate the external from the internal radioactivity. Liposomes were eluted with 1 mL of 50 mM NaCl and collected in 4ml of scintillation mixture, vortexed, and counted. The experimental values were corrected by subtracting the respective controls. The uptake time course data were interpolated using a first order rate equation from which rate constants were derived as the product of k (the first order rate constant) and the transport at the equilibrium. Data from dose-response experiments were fitted into an IC50 equation. For kinetic experiments the initial rate of transport expressed as nmol ⋅ min^−1 ⋅ mg protein^−1, was measured by stopping the reaction after 10 min, i.e., within the initial linear range of [^14C]-TEA or [^3H]-acetylcholine uptake into the proteoliposomes. Kinetic constants were estimated from interpolation of the experimental data into a Lineweaver–Burk equation. The Grafit (version 5.0.3) software was used for calculations.

native human OCTN1 = target: T2, native human OCTN1 (Homo sapiens, UniProt Q9H015); assay: [14C]-TEA uptake in proteoliposomes reconstituted with native OCTN1 extracted from HeLa cells; assay type: biochemical; conditions: 0.1 mM [14C]-TEA
T2 construct: the native human OCTN1, the protein extracted from HeLa cells was exploited; endogenous in cells; host or cells: HeLa cells (Triton X-100 extract reconstituted in proteoliposomes)
T2 sequence (Q9H015 1-551): T1 sequence (Q9H015 1-551)
Procedure: HeLa cells pellet was treated with 150 µL TX-100 10%. After vortexing cells have been incubated 30 min on ice and then centrifuged 10 min 12.000× g at 4 °C. The cell membrane extract (supernatant) was used for the reconstitution. 30 µL supernatant were included to the reconstitution mixture containing 120 µL 10% egg yolk phospholipids in the form of sonicated liposomes prepared as previously described, 80 µL 10% Triton X-100 solution, 16 mM ATP, 7 µL of 500 mM Tris/HCl (pH 7.5) in a final volume of 700 μL.
Each HeLa cell sample or HeLa cell extract was incubated with 10 mM MβCD for 90 min at 37 °C under stirring. Then, the respective extracts were reconstituted in proteoliposomes.
Proteoliposomes (550 µL) were passed through a Sephadex G-75 column (0.7 cm diameter x 15 cm height) pre-equilibrated with 5 mM Tris/HCl (pH 7.5). […] Finally, each sample of proteoliposomes (100 µL) was passed through a Sephadex G-75 column (0.6 cm diameter × 8 cm height) in order to separate the external from the internal radioactivity. Liposomes were eluted with 1 mL of 50 mM NaCl and collected in 4ml of scintillation mixture, vortexed, and counted. […] For kinetic experiments the initial rate of transport expressed as nmol ⋅ min^−1 ⋅ mg protein^−1, was measured by stopping the reaction after 10 min, i.e., within the initial linear range of [^14C]-TEA or [^3H]-acetylcholine uptake into the proteoliposomes. […]

[2] = Enzymatic quantitation of cholesterol/CHS in proteoliposome lipids; conditions: proteoliposomes with initial 8.3% CHS, 10 mM MβCD
Procedure: as §2
Quantitation was performed using the Cholesterol Quantitation Kit MAK043 by Merck Life Science s.r.l., 20149 Milan, Italy,). Assay was performed in the presence of cholesterol esterase with absorbance measured on a microplate reader at 570 nm.

recombinant OCTN1 [3] = target: T1, recombinant OCTN1; assay: [3H]-acetylcholine uptake in proteoliposomes reconstituted with recombinant OCTN1 over-expressed in E. coli; assay type: biochemical; conditions: for IC50: [3H]-acetylcholine uptake 0.1 mM, 20 min
Procedure: as §1, §3

recombinant OCTN1 [4] = target: T1, recombinant OCTN1; assay: Immunodetection of OCTN1 incorporated in proteoliposomes (anti-His antibody)
[5] = substrate: CC(=O)OCC[N+](C)(C)C; assay: [3H]-acetylcholine uptake in proteoliposomes reconstituted with recombinant OCTN1 over-expressed in E. coli; assay type: biochemical, human; conditions: other: in the absence of CHS; pH 7.5
Procedure: OCTN1 over-expressed in E. coli and purified as previously described was used for reconstitution in liposomes. The composition of the initial mixture used for reconstitution (except when differently indicated) was 200 µL of the purified protein (5 µg protein in 0.05% DDM), CHS at the indicated concentrations solubilized in 240 µL of 20 mM Tris/HCl (pH 7.5) and 5% Triton X-100 or buffer and Triton X-100 alone in the case of samples without CHS, 120 µL of 10% egg yolk phospholipids in the form of sonicated liposomes prepared as previously described, 16 mM ATP and (where indicated) in a final volume of 700 μL. […] Where indicated, proteoliposome internal volume was measured using a colorimetric phosphate method. […] At the end, absorbance from each sample was measured at 578 nm. […]
Proteoliposomes (550 µL) were passed through a Sephadex G-75 column (0.7 cm diameter x 15 cm height) pre-equilibrated with 5 mM Tris/HCl (pH 7.5). […] Finally, each sample of proteoliposomes (100 µL) was passed through a Sephadex G-75 column (0.6 cm diameter × 8 cm height) in order to separate the external from the internal radioactivity. Liposomes were eluted with 1 mL of 50 mM NaCl and collected in 4ml of scintillation mixture, vortexed, and counted. […]

Methyl-beta-CycloDextrin [MβCD]
decrease in transport activity (recombinant OCTN1 [1]; proteoliposomes with 8.3% CHS incubated with 10 mM MβCD, 0.1 mM [14C]-TEA): 31% | decrease of the native OCTN1 activity with respect to the control (native human OCTN1; HeLa cell extract incubated with 10 mM MβCD prior to reconstitution): 35% | decrease of the native OCTN1 activity with respect to the control (native human OCTN1; HeLa cells incubated with 10 mM MβCD prior to solubilization): 23% | reduction of the initial CHS concentration [2]: 40%

[Cl][Hg][Cl] [HgCl2]
IC50 (recombinant OCTN1 [1]; in the absence of CHS): 270 ± 50 µM | IC50 (recombinant OCTN1 [1]; in the presence of 8.3% CHS): 200 ± 30 µM

CC[N+](CC)(CC)CC [TEA, Tetraethylammonium]
Km (recombinant OCTN1 [1]): 900 µM and 800 µM | Vmax of transport (recombinant OCTN1 [1]): 36.1 ± 8.6 nmol ⋅ min^−1 ⋅ mg protein^−1 and 66.6 ± 16.4 nmol ⋅ min^−1 ⋅ mg protein^−1

C[N+]1(C)CCOC(O)(c2ccc(-c3ccc(C4(O)C[N+](C)(C)CCO4)cc3)cc2)C1 (stereo not shown) [hemicholinium]
IC50 (recombinant OCTN1 [3]; in the absence of CHS): 530 ± 46 µM | IC50 (recombinant OCTN1 [3]; in the presence of 8.3% CHS): 300 ± 52 µM

CC[N+](CC)(CC)Cc1ccccc1 [TEBA, Benzyltriethylammonium]
IC50 (recombinant OCTN1 [1]; in the absence of CHS): 1600 ± 300 µM | IC50 (recombinant OCTN1 [1]; in the presence of 8.3% CHS): 1900 ± 700 µM

Nc1ncnc2c1ncn2[C@@H]1O[C@H](COP(=O)(O)OP(=O)(O)OP(=O)(O)O)[C@@H](O)[C@H]1O [ATP]
effect of intraliposomal ATP on transport (recombinant OCTN1 [1]; TEA uptake, 8.3% CHS): stimulated the transport | effect of intraliposomal ATP on transport (recombinant OCTN1 [3]; acetylcholine uptake, 8.3% CHS): stimulated the transport

[Na+] [Na^+]
IC50 (recombinant OCTN1 [1]; in the presence of 8.3% CHS): 1700 ± 500 µM | IC50 (recombinant OCTN1 [3]; in the presence of 8.3% CHS): 2200 ± 200 µM

CC(C)CCC[C@@H](C)[C@H]1CC[C@H]2[C@@H]3CC=C4C[C@@H](OC(=O)CCC(=O)O)CC[C@]4(C)[C@H]3CC[C@]12C [CHS, Cholesteryl HemiSuccinate]
transport of TEA relative to control (without added cholesterol) (recombinant OCTN1 [1]; 8.3% CHS (83 µg CHS/mg total lipids), 0.1 mM [14C]-TEA): about double the control | CHS amount giving optimal transport activity (recombinant OCTN1 [1]; [14C]-tetraethylamonium uptake): 83 µg CHS/ mg total lipids | transport of acetylcholine relative to control (without added cholesterol) (recombinant OCTN1 [3]; 8.3% CHS (83 µg CHS/mg total lipids), 0.1 mM [3H]-acetylcholine): about double the control | CHS amount giving optimal transport activity (recombinant OCTN1 [3]; [3H]-acetylcholine uptake): 83 µg CHS/ mg total lipids | relative concentration of immuno-stained OCTN1, normalized to 0% CHS (100%) (recombinant OCTN1 [4]; 2.1% CHS): 109 ± 14% | relative concentration of immuno-stained OCTN1, normalized to 0% CHS (100%) (recombinant OCTN1 [4]; 4.2% CHS): 104 ± 5.8% | relative concentration of immuno-stained OCTN1, normalized to 0% CHS (100%) (recombinant OCTN1 [4]; 8.3% CHS): 106 ± 9.1%

B1: human recombinant OCTN1 (Homo sapiens) (protein)
chain: T1 sequence (Q9H015 1-551)
notes: made in house; host or cells: E. coli
Km [5]: 1100 ± 370 µM | Vmax [5]: 49.3 ± 12.4 nmol ⋅ min^−1 ⋅ mg protein^−1

From PMC7037232, “Effect of Cholesterol on the Organic Cation Transporter OCTN1 (SLC22A4)” (International Journal of Molecular Sciences, 2020)
